Among the data in US9604961B2, “Histone demethylase inhibitors” (Celgene Quanticel Research, Inc., priority 2012, dated 2017) are IC50 values, retold here.

Holding throughout (format): biochemical
One experiment addresses Jarid1B (Homo sapiens (Human), UniProt Q9UGL1). The experiment can be described thus: Jarid1B in vitro enzyme inhibition assay (TR-FRET). (In general: TR-FRET usually uses a lanthanide donor and a delayed reading to cut background.)
Another experiment addresses Jarid1A (Homo sapiens (Human), UniProt P29375). The experiment can be described thus: Jarid1A in vitro enzyme inhibition assay (TR-FRET). From the text:
The enzymatic assay of Jarid1A activity is based upon Time Resolved-Fluorescence Resonance Energy Transfer (TR-FRET) detection.

Another experiment has as its target JMJD2C (Homo sapiens (Human), UniProt Q9H3R0). Description: JMJD2C in vitro enzyme inhibition assay (TR-FRET).

As a reminder, the IC50 is the concentration at which inhibition is half-maximal. A low value points to higher potency.

Chain of JMJD2C (Q9H3R0 2-372): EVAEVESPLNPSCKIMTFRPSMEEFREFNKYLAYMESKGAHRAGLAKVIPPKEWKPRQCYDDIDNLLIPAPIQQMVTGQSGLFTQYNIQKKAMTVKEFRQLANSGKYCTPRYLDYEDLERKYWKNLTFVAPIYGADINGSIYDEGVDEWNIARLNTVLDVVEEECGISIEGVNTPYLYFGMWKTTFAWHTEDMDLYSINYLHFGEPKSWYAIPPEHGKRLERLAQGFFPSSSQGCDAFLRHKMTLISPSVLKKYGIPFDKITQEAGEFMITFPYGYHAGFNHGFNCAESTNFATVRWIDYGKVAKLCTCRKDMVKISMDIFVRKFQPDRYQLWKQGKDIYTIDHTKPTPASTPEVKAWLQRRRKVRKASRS
Chain of Jarid1B (Q9UGL1 2-751): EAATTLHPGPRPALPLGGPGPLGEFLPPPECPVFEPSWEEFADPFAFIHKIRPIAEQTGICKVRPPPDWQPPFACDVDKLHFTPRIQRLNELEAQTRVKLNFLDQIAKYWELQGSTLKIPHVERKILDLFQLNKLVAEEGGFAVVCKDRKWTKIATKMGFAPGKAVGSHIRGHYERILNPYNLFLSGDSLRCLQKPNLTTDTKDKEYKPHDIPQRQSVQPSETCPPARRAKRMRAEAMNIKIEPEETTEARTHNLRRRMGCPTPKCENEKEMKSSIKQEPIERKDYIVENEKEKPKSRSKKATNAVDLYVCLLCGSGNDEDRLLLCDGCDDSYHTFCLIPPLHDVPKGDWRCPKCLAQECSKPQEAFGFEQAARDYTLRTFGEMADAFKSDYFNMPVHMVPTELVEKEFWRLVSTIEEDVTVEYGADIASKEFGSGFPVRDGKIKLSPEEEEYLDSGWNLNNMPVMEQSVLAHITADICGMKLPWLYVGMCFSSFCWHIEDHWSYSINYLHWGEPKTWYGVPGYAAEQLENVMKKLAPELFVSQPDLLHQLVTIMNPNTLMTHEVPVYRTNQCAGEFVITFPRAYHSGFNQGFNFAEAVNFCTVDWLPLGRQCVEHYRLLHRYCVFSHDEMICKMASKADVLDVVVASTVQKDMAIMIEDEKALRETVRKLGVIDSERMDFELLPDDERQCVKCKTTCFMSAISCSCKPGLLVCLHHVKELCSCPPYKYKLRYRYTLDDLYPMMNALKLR
Chain of Jarid1A (P29375 1-1090): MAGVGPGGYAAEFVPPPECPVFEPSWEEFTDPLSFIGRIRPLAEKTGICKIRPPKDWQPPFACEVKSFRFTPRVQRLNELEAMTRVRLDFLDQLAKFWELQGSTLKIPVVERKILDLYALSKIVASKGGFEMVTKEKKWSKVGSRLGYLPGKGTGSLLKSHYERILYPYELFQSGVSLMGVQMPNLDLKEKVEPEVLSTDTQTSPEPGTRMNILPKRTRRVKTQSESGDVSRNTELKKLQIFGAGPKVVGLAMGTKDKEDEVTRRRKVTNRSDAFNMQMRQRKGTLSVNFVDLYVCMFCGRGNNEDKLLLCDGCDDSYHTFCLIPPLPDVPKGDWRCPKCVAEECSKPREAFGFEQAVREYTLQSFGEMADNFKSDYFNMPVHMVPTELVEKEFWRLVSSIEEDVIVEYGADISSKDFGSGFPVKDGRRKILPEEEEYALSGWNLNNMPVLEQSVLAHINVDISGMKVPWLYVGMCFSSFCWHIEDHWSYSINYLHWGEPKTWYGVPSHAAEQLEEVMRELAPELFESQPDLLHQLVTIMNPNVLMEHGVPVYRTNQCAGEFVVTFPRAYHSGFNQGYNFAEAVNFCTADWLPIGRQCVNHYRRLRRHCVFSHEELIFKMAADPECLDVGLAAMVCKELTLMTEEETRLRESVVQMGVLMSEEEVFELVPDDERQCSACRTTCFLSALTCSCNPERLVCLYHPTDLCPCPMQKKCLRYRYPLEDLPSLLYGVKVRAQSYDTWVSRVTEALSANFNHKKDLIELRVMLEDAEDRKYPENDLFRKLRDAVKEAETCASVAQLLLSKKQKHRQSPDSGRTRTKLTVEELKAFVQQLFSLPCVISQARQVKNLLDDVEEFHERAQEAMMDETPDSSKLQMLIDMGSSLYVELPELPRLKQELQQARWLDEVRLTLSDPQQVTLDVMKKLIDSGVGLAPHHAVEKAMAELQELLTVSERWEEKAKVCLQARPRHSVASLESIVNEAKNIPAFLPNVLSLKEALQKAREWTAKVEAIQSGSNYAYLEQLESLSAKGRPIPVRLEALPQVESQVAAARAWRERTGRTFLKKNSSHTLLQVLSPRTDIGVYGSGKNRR
Experimental for JMJD2C: Baculovirus expressed JMJD2C (GenBank Accession #BC143571, AA 2-372) was purchased from BPS Bioscience (Cat#50105).
The ability of test compounds to inhibit the activity of JMJD2C was determined in 384-well plate format under the following reaction conditions: 0.3 nM JMJD2C, 300 nM H3K9me3-biotin labeled peptide (Anaspec cat #64360), 2 μM alpha-ketoglutaric acid in assay buffer of 50 mM HEPES, pH7.3, 0.005% Brij35, 0.5 mM TCEP, 0.2 mg/ml BSA, 50 μM sodium L-ascorbate, and 2 μM ammonium iron(II) sulfate. Reaction product was determined quantitatively by TR-FRET after the addition of detection reagent Phycolink Streptavidin-allophycocyanin (Prozyme) and Europium-anti-di-methylated histone H3 lysine 9 (H3K9me2) antibody (PerkinElmer) in the presence of 5 mM EDTA in LANCE detection buffer (PerkinElmer) at a final concentration of 50 nM and 1 nM, respectively.
The assay reaction was initiated by the following: 2 μl of the mixture of 900 nM H3K9me3-biotin labeled peptide and 6 μM alpha-ketoglutaric acid with 2 μl of 11-point serial diluted inhibitor in 3% DMSO were added to each well of the plate, followed by the addition of 2 μl of 0.9 nM JMJD2C to initiate the reaction. The reaction mixture was incubated at room temperature for 30 minutes, and terminated by the addition of 6 μl of 5 mM EDTA in LANCE detection buffer containing 100 nM Phycolink Streptavidin-allophycocyanin and 2 nM Europium-anti-H3K9me2 antibody. Plates were read by EnVisionMultilabel Reader in TR-FRET mode (excitation at 320 nm, emission at 615 nm and 665 nm) after 1 hour incubation at room temperature. A ratio was calculated (665/615) for each well and fitted to determine inhibition constant (IC50).
Experimental for Jarid1B: This assay determines the ability of a test compound to inhibit Jarid1A, Jarid1B, JMJD2C, and JMJD2A demethylase activity.
The ability of test compounds to inhibit the activity of Jarid1B was determined in 384-well plate format under the following reaction conditions: 0.8 nM Jarid1B, 300 nM H3K4me3-biotin labeled peptide (Anaspec cat #64357), 2 μM alpha-ketoglutaric acid in assay buffer of 50 mM HEPES, pH7.3, 0.005% Brij35, 0.5 mM TCEP, 0.2 mg/ml BSA, 50 μM sodium L-ascorbate, and 2 μM ammonium iron(II) sulfate. Reaction product was determined quantitatively by TR-FRET after the addition of detection reagent Phycolink Streptavidin-allophycocyanin (Prozyme) and Europium-anti-mono- or di-methylated histone H3 lysine 4 (H3K4me1-2) antibody (PerkinElmer) in the presence of 5 mM EDTA in LANCE detection buffer (PerkinElmer) at a final concentration of 25 nM and 1 nM, respectively.
The assay reaction was initiated by the following: 2 μl of the mixture of 900 nM H3K4me3-biotin labeled peptide and 6 μM alpha-ketoglutaric acid with 2 μl of 11-point serial diluted inhibitor in 3% DMSO was added to each well of the plate, followed by the addition of 2 μl of 2.4 nM Jarid1B to initiate the reaction. The reaction mixture was incubated at room temperature for 30 minutes, and terminated by the addition of 6 μl of 5 mM EDTA in LANCE detection buffer containing 50 nM Phycolink Streptavidin-allophycocyanin and 2 nM Europium-anti-H3K4me1-2 antibody. Plates were read by EnVisionMultilabel Reader in TR-FRET mode (excitation at 320 nm, emission at 615 nm and 665 nm) after 1 hour incubation at room temperature. A ratio was calculated (665/615) for each well and fitted to determine inhibition constant (IC50).

For the molecule `N#Cc1cccc(COc2ccnn2-c2cc(C(=O)O)ccn2)c1` [Example 97, 2-[5-[(3-cyanophenyl)methoxy]pyrazol-1-yl]pyridine-4-carboxylic acid], the IC50 at Jarid1B, against Jarid1A and at JMJD2C was below 0.1 µM in each case.
With `CCC(C)Oc1cc(Cl)ccc1COc1ccnn1-c1cc(C(=O)O)ccn1` (stereo not drawn) [Example 114, 2-[5-[(2-butan-2-yloxy-4-chlorophenyl)methoxy]pyrazol-1-yl]pyridine-4-carboxylic acid], the IC50 against Jarid1B lay within 0.1 to 1 µM; on Jarid1A, 0.1 to 1 µM; against JMJD2C, 1 to 10 µM.
As for `Cc1ccc(COc2ccnn2-c2cc(C(=O)O)ccn2)cc1F` [Example 93, 2-[5-[(3-fluoro-4-methylphenyl)methoxy]pyrazol-1-yl]pyridine-4-carboxylic acid], the IC50 against Jarid1B, against Jarid1A and at JMJD2C was below 0.1 µM each time.
`COc1cc(-c2ccnn2-c2cc(C(=O)O)ccn2)ccc1C` [Example 20, 2-(5-(3-methoxy-4-methylphenyl)-1H-pyrazol-1-yl)isonicotinic acid]: the IC50 against Jarid1B fell in the range of 0.1 to 1 µM; against Jarid1A, 0.1 to 1 µM; against JMJD2C, 1 to 10 µM.
Consider `O=C(O)c1ccnc(-n2nccc2OCc2ccc(F)cc2CCc2ccc(F)cc2)c1` [Example 121, 2-[5-[[4-fluoro-2-[2-(4-fluorophenyl)ethyl]phenyl]methoxy]pyrazol-1-yl]pyridine-4-carboxylic acid], for which the IC50 at Jarid1B was in the range of 0.1 to 1 µM; on Jarid1A it was 0.1 to 1 µM; against JMJD2C it was 1 to 10 µM.
On to `O=C(O)c1ccnc(-n2nccc2OCc2ccc(C(F)(F)F)cc2)c1` [Example 54, 2-(5-{[4-(trifluoromethyl)benzyl]oxy}-1H-pyrazol-1-yl)pyridine-4-carboxylic acid], for which the half-maximal inhibitory concentration (IC50) was below 0.1 µM on Jarid1B, below 0.1 µM against Jarid1A and 0.1 to 1 µM against JMJD2C.
With “2-{5-[(2-methyl-2H-indazol-5-yl)methoxy]-1H-pyrazol-1-yl}pyridine-4-carboxylic acid [Example 51]”, the results for the concentration for half-maximal inhibition (IC50) against Jarid1B, against Jarid1A and at JMJD2C were below 0.1 µM, below 0.1 µM and 0.1 to 1 µM, respectively.
Take `COCCOc1cc(Cl)ccc1COc1ccnn1-c1cc(C(=O)O)ccn1` [Example 116, 2-[5-[[4-chloro-2-(2-methoxyethoxy)phenyl]methoxy]pyrazol-1-yl]pyridine-4-carboxylic acid]: the IC50 on Jarid1B is below 0.1 µM; at Jarid1A it was below 0.1 µM; at JMJD2C it was 0.1 to 1 µM.
In the case of `CN(C)c1ccc(-c2ccnn2-c2cc(C(=O)O)ccn2)cc1` [Example 47, 2-{5-[4-(dimethylamino)phenyl]-1H-pyrazol-1-yl}pyridine-4-carboxylic acid], the figures for the IC50 against Jarid1B, against Jarid1A and against JMJD2C were 0.1 to 1 µM, 0.1 to 1 µM and 1 to 10 µM, respectively.
Consider `O=C(O)c1ccnc(-n2nccc2CCc2ccccc2)c1` [Example 34, 2-(5-phenethyl-1H-pyrazol-1-yl)isonicotinic acid], for which the IC50 on Jarid1B was 1 to 10 µM; at Jarid1A, 1 to 10 µM; against JMJD2C, above 10 µM.
On to `O=C(O)c1ccnc(-n2nccc2OCc2ccc(Cl)cc2)c1` [Example 53, 2-{5-[(4-chlorobenzyl)oxy]-1H-pyrazol-1-yl}pyridine-4-carboxylic acid], for which the IC50 against Jarid1B, against Jarid1A and at JMJD2C was below 0.1 µM each time.
`O=C(O)c1ccnc(-n2nccc2OCc2ccc(C3CC3)c(Cl)c2)c1` [Example 154, 2-[5-[(3-chloro-4-cyclopropylphenyl)methoxy]pyrazol-1-yl]pyridine-4-carboxylic acid]: the IC50 against Jarid1B was in the range of 0.1 to 1 µM; against Jarid1A it was 0.1 to 1 µM; against JMJD2C, 1 to 10 µM.
Regarding `O=C(O)c1ccnc(-n2nccc2OCc2cccc(Cl)c2)c1` [Example 58, 2-{5-[(3-chlorobenzyl)oxy]-1H-pyrazol-1-yl}pyridine-4-carboxylic acid], the IC50 on Jarid1B, against Jarid1A and against JMJD2C was below 0.1 µM each time.
For `O=C(O)c1ccnc(-n2nccc2-c2ccc(Cl)c(O)c2)c1` [Example 23, 2-(5-(4-chloro-3-hydroxyphenyl)-1H-pyrazol-1-yl)isonicotinic acid], the figures for the IC50 against Jarid1B, against Jarid1A and against JMJD2C were 0.1 to 1 µM, 0.1 to 1 µM and 1 to 10 µM, respectively.
On to `O=C(O)c1ccnc(-n2nccc2OCc2ccc(Cl)c(C(F)(F)F)c2)c1` [Example 91, 2-[5-[[4-chloro-3-(trifluoromethyl)phenyl]methoxy]pyrazol-1-yl]pyridine-4-carboxylic acid], for which the IC50 against Jarid1B was below 0.1 µM; at Jarid1A, below 0.1 µM; against JMJD2C it was 0.1 to 1 µM.
For `COc1cc(Br)ccc1COc1ccnn1-c1cc(C(=O)O)ccn1` [Example 143, 2-[5-[(4-bromo-2-methoxyphenyl)methoxy]pyrazol-1-yl]pyridine-4-carboxylic acid], the figures for the half-inhibitory concentration (IC50) on Jarid1B, on Jarid1A and at JMJD2C were below 0.1 µM, below 0.1 µM and 0.1 to 1 µM, respectively.
Consider `Cc1ccc(-c2cc(N)nn2-c2cc(C(=O)O)ccn2)cc1` [Example 48, 2-[3-amino-5-(4-methylphenyl)-1H-pyrazol-1-yl]pyridine-4-carboxylic acid], for which the figures for the IC50 on Jarid1B, against Jarid1A and at JMJD2C were 0.1 to 1 µM, below 0.1 µM and 1 to 10 µM, respectively.
Taken in the same sequence, the figures for `Cc1cc(Br)ccc1COc1ccnn1-c1cc(C(=O)O)ccn1` [Example 142, 2-[5-[(4-bromo-2-methylphenyl)methoxy]pyrazol-1-yl]pyridine-4-carboxylic acid] were 0.1 to 1 µM, 0.1 to 1 µM and 0.1 to 1 µM.
For `Cc1ccc(-c2cc(C)nn2-c2cc(C(=O)O)ccn2)cc1` [Example 29, 2-(3-methyl-5-p-tolyl-1H-pyrazol-1-yl)isonicotinic acid] the same measures were 1 to 10 µM, 1 to 10 µM and 1 to 10 µM.
For `CCc1cnn(-c2cc(C(=O)O)ccn2)c1OCc1ccc(F)cc1` [Example 85, 2-[4-ethyl-5-[(4-fluorophenyl)methoxy]pyrazol-1-yl]pyridine-4-carboxylic acid] the same measures were below 0.1 µM, below 0.1 µM and 0.1 to 1 µM.
For `CCCCc1ccnn1-c1cc(C(=O)O)ccn1` [Example 44, 2-(5-butyl-1H-pyrazol-1-yl)pyridine-4-carboxylic acid], the IC50 was 1 to 10 µM on Jarid1B, 1 to 10 µM against Jarid1A and above 10 µM on JMJD2C.
In the case of `CC(C)Oc1cc(Cl)ccc1COc1ccnn1-c1cc(C(=O)O)ccn1` [Example 113, 2-[5-[(4-chloro-2-propan-2-yloxyphenyl)methoxy]pyrazol-1-yl]pyridine-4-carboxylic acid], the IC50 was 0.1 to 1 µM against Jarid1B, 0.1 to 1 µM against Jarid1A and 1 to 10 µM against JMJD2C.
As to `O=C(O)c1ccnc(-n2nccc2OCc2ccc(Cl)c(OCc3ccc(F)cc3)c2)c1` [Example 138, 2-[5-[[4-chloro-3-[(4-fluorophenyl)methoxy]phenyl]methoxy]pyrazol-1-yl]pyridine-4-carboxylic acid], the values for the IC50 on Jarid1B, against Jarid1A and at JMJD2C were below 0.1 µM, below 0.1 µM and 0.1 to 1 µM, respectively.
In the case of `COc1cccc(COc2ccnn2-c2cc(C(=O)O)ccn2)c1` [Example 42, 2-{5-[(3-methoxybenzyl)oxy]-1H-pyrazol-1-yl}pyridine-4-carboxylic acid], the IC50 at Jarid1B, at Jarid1A and against JMJD2C was below 0.1 µM each time.
